Like-named read-outs stand apart in the source and are kept apart here.
Columns and labels:
[1] = target: full-length MALT1 protein (Strep-MALT1(1-824)-His) (Homo sapiens (Human), UniProt Q9UDY8); assay: MALT1 Biochemical Protease Assay (Ac-LRSR-AMC substrate); conditions: 10 nM FL MALT1, 200 μM Ac-LRSR-AMC, 4 h at RT; read-out: MALT1_Biochemical activity (Ac-LRSR-amc) IC50
In short: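 Full-length MALT1 pre-incubated with compounds (30 μM to 0.5 nM, 11 threefold steps) for 50 min at RT. After Ac-LRSR-AMC was added, the reaction ran 4 h at RT and AMC fluorescence was read. IC50 and Hill slope from curve fitting against no-enzyme and no-compound controls.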

[2] = test system: IL6 secretion by OCI-LY3 ABC-DLBCL cells; assay: Human IL6 Mesoscale assay (OCI-LY3); type: cell-based; conditions: 24 h
In short: (§1)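 TMD8 or OCI-LY3 cells (100,000/well) were exposed to compounds in 9 twofold dilutions from 15 μM to 58.6 nM (0.3% DMSO) for 24 h at 37 °C. Supernatant IL6 and IL10 were quantified by MSD electrochemiluminescence immunoassay. DMSO defined maximum signal and BTK inhibitor RN486 (30 nM–131 pM) defined maximum inhibition.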

[3] = test system: IL10 secretion by OCI-LY3 ABC-DLBCL cells; assay: Human IL10 Mesoscale assay (OCI-LY3); type: cell-based; conditions: 24 h
In short: as §1

[4] = test system: OCI-Ly3 cells; assay: 4-day proliferation assay, OCI-Ly3; type: cell-based, human; conditions: 4 days incubation, CellTiterGLO, read-out: Anti-proliferation: OCI-LY-3 IC50
In short: (§2)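 TMD8 and OCI-Ly3 cells were seeded at 10,000 per well and grown 4 days at 37° C, 5% CO2 without beta-mercaptoethanol. Viability was read by CellTiter-Glo luminescence. IC50 and Hill slope were fitted relative to the low control median.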

[5] = test system: TMD8 cells; assay: 4-day proliferation assay, TMD8; type: cell-based; conditions: 4 days incubation, CellTiterGLO, read-out: Anti-proliferation: TMD-8 IC50
In short: as §2

Sequence of full-length MALT1 protein (Strep-MALT1(1-824)-His) (Q9UDY8 whole entry): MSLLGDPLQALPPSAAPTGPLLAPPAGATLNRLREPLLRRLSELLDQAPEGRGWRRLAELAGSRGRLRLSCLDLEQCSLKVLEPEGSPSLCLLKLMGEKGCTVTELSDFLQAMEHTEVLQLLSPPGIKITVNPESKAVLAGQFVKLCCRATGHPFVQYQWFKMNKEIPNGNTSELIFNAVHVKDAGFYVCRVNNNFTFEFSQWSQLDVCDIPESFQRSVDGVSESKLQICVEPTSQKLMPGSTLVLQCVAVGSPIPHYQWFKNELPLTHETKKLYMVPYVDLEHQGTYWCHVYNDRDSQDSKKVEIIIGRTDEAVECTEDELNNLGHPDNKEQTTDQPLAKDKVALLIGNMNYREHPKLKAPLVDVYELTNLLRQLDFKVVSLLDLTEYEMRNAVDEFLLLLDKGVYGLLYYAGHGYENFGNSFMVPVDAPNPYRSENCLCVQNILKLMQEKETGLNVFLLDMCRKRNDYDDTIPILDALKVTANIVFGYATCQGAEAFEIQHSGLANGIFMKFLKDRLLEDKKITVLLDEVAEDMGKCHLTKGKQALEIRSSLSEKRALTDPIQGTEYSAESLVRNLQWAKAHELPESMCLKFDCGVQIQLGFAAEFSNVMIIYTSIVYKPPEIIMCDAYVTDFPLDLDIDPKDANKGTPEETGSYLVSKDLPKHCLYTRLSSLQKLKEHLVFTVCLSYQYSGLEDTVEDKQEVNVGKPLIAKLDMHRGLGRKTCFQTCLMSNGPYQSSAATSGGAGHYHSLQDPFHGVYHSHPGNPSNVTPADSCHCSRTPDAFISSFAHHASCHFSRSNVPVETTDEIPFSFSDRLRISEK

Compound | IC50 [1] [nM] | IC50 ([2]; Homo sapiens) [nM] | IC50 ([3]; Homo sapiens) [nM] | IC50 ([4]; Homo sapiens, 96 h) [nM] | IC50 ([5]; Homo sapiens, 96 h) [nM] | IC50 [2] [nM] | IC50 [3] [nM] | IC50 [4] [nM] | IC50 [5] [nM]
Cn1nc(-c2ncc(NC(=O)c3cnn(-c4cccc5ncccc45)c3C(F)(F)F)cc2C#N)cc1N [Cpd 181, N-(6-(5-amino-1-methyl-1H-pyrazol-3-yl)-5-cyanopyridin-3-yl)-1-(quinolin-5-yl)-5-(trifluoromethyl)-1H-pyrazole-4-carboxamide] | 38 | 141 | 110 | 1500 | > 7940 | – | – | – | –
O=C(Nc1cncc(C(F)(F)F)c1)c1cnn(-c2cccc3c(=O)[nH]ccc23)c1C(F)(F)F [Cpd 167, 1-(1-oxo-1,2-dihydroisoquinolin-5-yl)-5-(trifluoromethyl)-N-(5-(trifluoromethyl)pyridin-3-yl)-1H-pyrazole-4-carboxamide] | 110 | 191 | 174 | 1020 | 4570 | – | – | – | –
N#Cc1cc(NC(=O)c2cnn(-c3cccc4nnsc34)c2C(F)(F)F)cnc1-n1nccn1 [Cpd 119, 1-(benzo[d][1,2,3]thiadiazol-7-yl)-N-(5-cyano-6-(2H-1,2,3-triazol-2-yl)pyridin-3-yl)-5-(trifluoromethyl)-1H-pyrazole-4-carboxamide] | 13 | 72 | 40 | 193 | 355 | – | – | – | –
O=C(Nc1cnc(-n2nccn2)c(Br)c1)c1cnn(-c2cccc3ncccc23)c1C(F)(F)F [Cpd 139, N-(5-bromo-6-(2H-1,2,3-triazol-2-yl)pyridin-3-yl)-1-(quinolin-5-yl)-5-(trifluoromethyl)-1H-pyrazole-4-carboxamide] | 23 | 50 | 36 | 275 | 1410 | – | – | – | –
O=C(Nc1cnc(-n2nccn2)c(Cl)c1)c1cnn(-c2cccn3nccc23)c1C(F)(F)F [Cpd 197, N-(5-chloro-6-(2H-1,2,3-triazol-2-yl)pyridin-3-yl)-1-(pyrazolo[1,5-a]pyridin-4-yl)-5-(trifluoromethyl)-1H-pyrazole-4-carboxamide] | 15 | 123 | 85 | 295 | 7410 | – | – | – | –
N#Cc1cc(NC(=O)c2cnn(-c3ccc(N)c4ncccc34)c2C(F)(F)F)cnc1-n1nccn1 [Cpd 326, 1-(8-aminoquinolin-5-yl)-N-(5-cyano-6-(2H-1,2,3-triazol-2-yl)pyridin-3-yl)-5-(trifluoromethyl)-1H-pyrazole-4-carboxamide] | 45 | 105 | 89 | 881 | 3240 | – | – | – | –
O=C(Nc1cnc(-n2cc(CO)cn2)c(Cl)c1)c1cnn(-c2cccc3ncccc23)c1C(F)(F)F [Cpd 135, N-(5-chloro-6-(4-(hydroxymethyl)-1H-pyrazol-1-yl)pyridin-3-yl)-1-(quinolin-5-yl)-5-(trifluoromethyl)-1H-pyrazole-4-carboxamide] | 21 | 98 | 83 | 1310 | 3090 | – | – | – | –
Cc1nc(-n2nccn2)c(C#N)cc1NC(=O)c1cnn(-c2cccc3c(=O)[nH]ccc23)c1C(F)(F)F [Cpd 176, N-(5-cyano-2-methyl-6-(2H-1,2,3-triazol-2-yl)pyridin-3-yl)-1-(1-oxo-1,2-dihydroisoquinolin-5-yl)-5-(trifluoromethyl)-1H-pyrazole-4-carboxamide] | 45 | 117 | 95 | 1590 | > 20000 | – | – | – | –
Cc1nc(-n2nccn2)c(Cl)cc1NC(=O)c1cnn(-c2cccn3nccc23)c1C(F)(F)F | 26 | 115 | 91 | 641 | 3020 | – | – | – | –
Cc1nc(-c2ccn(C)n2)c(Cl)cc1NC(=O)c1cnn(-c2cccc3c(=O)[nH]ccc23)c1C(F)(F)F [Cpd 169, N-(5-chloro-2-methyl-6-(1-methyl-1H-pyrazol-3-yl)pyridin-3-yl)-1-(1-oxo-1,2-dihydroisoquinolin-5-yl)-5-(trifluoromethyl)-1H-pyrazole-4-carboxamide] | 72 | 166 | 182 | 1750 | 8910 | – | – | – | –
Cc1nc(-n2nccn2)c(Cl)cc1NC(=O)c1cnn(-c2cccc3c(=O)[nH]ccc23)c1C(F)(F)F [Cpd 112, N-(5-chloro-2-methyl-6-(2H-1,2,3-triazol-2-yl)pyridin-3-yl)-1-(1-oxo-1,2-dihydroisoquinolin-5-yl)-5-(trifluoromethyl)-1H-pyrazole-4-carboxamide] | 17 | 115 | 98 | 966 | 6310 | – | – | – | –
Cc1nc(-n2nccn2)c(Cl)cc1NC(=O)c1cnn(-c2cccc3nnsc23)c1C(F)(F)F [Cpd 121, 1-(benzo[d][1,2,3]thiadiazol-7-yl)-N-(5-chloro-2-methyl-6-(2H-1,2,3-triazol-2-yl)pyridin-3-yl)-5-(trifluoromethyl)-1H-pyrazole-4-carboxamide] | 22 | 58 | 50 | 692 | 1900 | – | – | – | –
O=C(Nc1cc(Cl)c(-n2nccn2)cc1F)c1cnn(-c2cncc3c(F)cccc23)c1C(F)(F)F [Cpd 302, N-(5-chloro-2-fluoro-4-(2H-1,2,3-triazol-2-yl)phenyl)-1-(8-fluoroisoquinolin-4-yl)-5-(trifluoromethyl)-1H-pyrazole-4-carboxamide] | 54 | 102 | 59 | 692 | 955 | – | – | – | –
O=C(Nc1cnc(-n2nccn2)c(Cl)c1)c1cnn(-c2cccc3nccn23)c1C(F)(F)F [Cpd 193, N-(5-chloro-6-(2H-1,2,3-triazol-2-yl)pyridin-3-yl)-1-(imidazo[1,2-a]pyridin-5-yl)-5-(trifluoromethyl)-1H-pyrazole-4-carboxamide] | 41 | 117 | 79 | 521 | 3630 | – | – | – | –
Nc1cnn(-c2ncc(NC(=O)c3cnn(-c4cccc5ncccc45)c3C(F)(F)F)cc2Cl)n1 [Cpd 154, N-(6-(4-amino-2H-1,2,3-triazol-2-yl)-5-chloropyridin-3-yl)-1-(quinolin-5-yl)-5-(trifluoromethyl)-1H-pyrazole-4-carboxamide] | 19 | 98 | 95 | 395 | 2240 | – | – | – | –
N#Cc1cc(NC(=O)c2cnn(-c3cccc4c(=O)[nH]ccc34)c2C(F)(F)F)cnc1-n1nccn1 [Cpd 113, N-(5-cyano-6-(2H-1,2,3-triazol-2-yl)pyridin-3-yl)-1-(1-oxo-1,2-dihydroisoquinolin-5-yl)-5-(trifluoromethyl)-1H-pyrazole-4-carboxamide] | 11 | 170 | 79 | 912 | 13800 | – | – | – | –
O=C(Nc1cnc(-n2nccn2)c(Cl)c1)c1cnn(-c2cc(=O)[nH]c3ccccc23)c1C(F)(F)F [Cpd 418, N-(5-chloro-6-(2H-1,2,3-triazol-2-yl)pyridin-3-yl)-1-(2-oxo-1,2-dihydroquinolin-4-yl)-5-(trifluoromethyl)-1H-pyrazole-4-carboxamide] | 550 | 95 | 71 | 464 | 3630 | – | – | – | –
N#Cc1cc(NC(=O)c2cnn(-c3cccc4ocnc34)c2C(F)(F)F)cnc1-n1nccn1 [Cpd 311, 1-(benzo[d]oxazol-4-yl)-N-(5-cyano-6-(2H-1,2,3-triazol-2-yl)pyridin-3-yl)-5-(trifluoromethyl)-1H-pyrazole-4-carboxamide] | 50 | 34 | 37 | 2320 | 3550 | – | – | – | –
N#Cc1cc(NC(=O)c2cnn(-c3cncc4c(F)cccc34)c2C(F)(F)F)cnc1-n1nccn1 [Cpd 118, N-(5-cyano-6-(2H-1,2,3-triazol-2-yl)pyridin-3-yl)-1-(8-fluoroisoquinolin-4-yl)-5-(trifluoromethyl)-1H-pyrazole-4-carboxamide] | 15 | 17 | 12 | 158 | 832 | – | – | – | –
Cc1cc(-n2nccn2)c(C#N)cc1NC(=O)c1cnn(-c2cccc3c(=O)[nH]ccc23)c1C(F)(F)F [Cpd 446, N-(5-cyano-2-methyl-4-(2H-1,2,3-triazol-2-yl)phenyl)-1-(1-oxo-1,2-dihydroisoquinolin-5-yl)-5-(trifluoromethyl)-1H-pyrazole-4-carboxamide] | 32 | 22 | 13 | 1060 | > 20000 | – | – | – | –
N-(4-(4-(aminomethyl)-1H-pyrazol-1-yl)-3-chlorophenyl)-1-(quinolin-5-yl)-5-(trifluoromethyl)-1H-pyrazole-4-carboxamide [Cpd 174] | 59 | – | – | – | – | 251 | 112 | 804 | 1700

From patent US10954214B2 (Janssen Pharmaceutica NV, priority 2016, dated 2021)
